The values that follow come from patent publication US11492335B2, “Aryl or heteroaryl triazolone derivatives or salts thereof, or pharmaceutical compositions comprising the same” (YUHAN CORPORATION, priority 2018, dated 2022).

Counter-ions that a name gives are not always drawn. Like-named read-outs stand apart in the source and are kept apart here. A value given as a limit tells only on which side of the number the result lay.

Format in all cases: biochemical
For one experiment, the target named is T1, recombinant human VAP-1 (Homo sapiens, UniProt Q16853).
T1 construct: purchased R&D systems
T1 sequence (Q16853 1-763): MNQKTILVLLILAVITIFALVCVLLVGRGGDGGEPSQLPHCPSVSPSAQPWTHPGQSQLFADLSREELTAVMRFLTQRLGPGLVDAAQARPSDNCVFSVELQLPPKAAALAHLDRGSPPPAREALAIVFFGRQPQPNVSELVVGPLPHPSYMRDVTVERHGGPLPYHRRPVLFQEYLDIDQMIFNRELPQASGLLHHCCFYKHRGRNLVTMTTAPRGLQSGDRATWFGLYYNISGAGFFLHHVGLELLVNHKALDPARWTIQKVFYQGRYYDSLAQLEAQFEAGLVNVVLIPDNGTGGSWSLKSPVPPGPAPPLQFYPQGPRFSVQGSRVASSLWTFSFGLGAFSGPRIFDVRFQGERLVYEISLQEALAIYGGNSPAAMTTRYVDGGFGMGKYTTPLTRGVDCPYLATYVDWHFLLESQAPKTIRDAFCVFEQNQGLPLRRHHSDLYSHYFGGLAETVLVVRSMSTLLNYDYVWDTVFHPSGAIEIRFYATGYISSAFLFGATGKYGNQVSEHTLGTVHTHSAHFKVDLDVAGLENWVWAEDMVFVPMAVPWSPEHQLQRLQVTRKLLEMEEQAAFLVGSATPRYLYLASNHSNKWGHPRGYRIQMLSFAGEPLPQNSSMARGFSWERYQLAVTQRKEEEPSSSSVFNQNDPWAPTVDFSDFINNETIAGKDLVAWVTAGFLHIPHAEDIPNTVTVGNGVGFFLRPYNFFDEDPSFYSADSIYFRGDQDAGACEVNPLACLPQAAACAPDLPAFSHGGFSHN
The experiment is described as follows: Activity on recombinant human VAP-1, Amplex Red HRP-coupled hydrogen peroxide assay, benzylamine substrate. The note with it: recombinant human VAP-1, benzylamine substrate, read-out: Inhibitory Activity (IC50, nM) human VAP-1. In outline:
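Enzyme in 50 mM sodium phosphate (pH 7.4) is exposed to test compound for 30 min at 37 °C. Benzylamine (1 mM) with HRP and Amplex Red then starts the reaction, and the fluorescence rate, relative to a DMSO-only control, gives IC50.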

The target in experiment [1] is T2, recombinant human MAO-A (monoamine oxidase-A) (Homo sapiens, UniProt P21397).
T2 construct: purchased Sigma-Aldrich
T2 sequence (P21397 1-527): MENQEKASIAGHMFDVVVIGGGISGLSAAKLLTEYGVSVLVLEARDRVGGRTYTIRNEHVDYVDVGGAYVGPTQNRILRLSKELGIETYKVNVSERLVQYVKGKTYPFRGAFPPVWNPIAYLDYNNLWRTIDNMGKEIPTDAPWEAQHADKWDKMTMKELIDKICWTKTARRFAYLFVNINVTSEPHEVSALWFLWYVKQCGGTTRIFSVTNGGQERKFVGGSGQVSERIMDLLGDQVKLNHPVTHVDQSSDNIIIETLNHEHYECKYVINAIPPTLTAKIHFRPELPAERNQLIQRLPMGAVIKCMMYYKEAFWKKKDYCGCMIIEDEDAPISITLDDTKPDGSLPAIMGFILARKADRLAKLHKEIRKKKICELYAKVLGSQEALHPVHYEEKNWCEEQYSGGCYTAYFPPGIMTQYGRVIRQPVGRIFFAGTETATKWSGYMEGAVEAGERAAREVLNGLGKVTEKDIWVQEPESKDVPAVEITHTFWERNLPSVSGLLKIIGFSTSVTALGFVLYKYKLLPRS
The experiment is described as follows: Activity on recombinant human MAO-A, Amplex Red method, 0.5 mM tyramine substrate. The settings on record: read-out: Inhibitory Activity (IC50, nM) MAO-A. In outline:
(§1)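 Enzyme in pH 7.4 phosphate buffer; 30 min, 37° C with compound (DMSO <1%); start with 200 uM Amplex Red + 1 U/mL HRP + tyramine 0.5 mM (MAO-A) or benzylamine 1 mM (MAO-B); kinetic read ex 544/em 590, 1-2 h; % rate decrease vs DMSO control → IC50, 4-parameter fit.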

Experiment [2] concerns the target T3, recombinant human MAO-B (monoamine oxidase-B) (Homo sapiens, UniProt P27338).
T3 construct: purchased Sigma-Aldrich
T3 sequence (P27338 1-520): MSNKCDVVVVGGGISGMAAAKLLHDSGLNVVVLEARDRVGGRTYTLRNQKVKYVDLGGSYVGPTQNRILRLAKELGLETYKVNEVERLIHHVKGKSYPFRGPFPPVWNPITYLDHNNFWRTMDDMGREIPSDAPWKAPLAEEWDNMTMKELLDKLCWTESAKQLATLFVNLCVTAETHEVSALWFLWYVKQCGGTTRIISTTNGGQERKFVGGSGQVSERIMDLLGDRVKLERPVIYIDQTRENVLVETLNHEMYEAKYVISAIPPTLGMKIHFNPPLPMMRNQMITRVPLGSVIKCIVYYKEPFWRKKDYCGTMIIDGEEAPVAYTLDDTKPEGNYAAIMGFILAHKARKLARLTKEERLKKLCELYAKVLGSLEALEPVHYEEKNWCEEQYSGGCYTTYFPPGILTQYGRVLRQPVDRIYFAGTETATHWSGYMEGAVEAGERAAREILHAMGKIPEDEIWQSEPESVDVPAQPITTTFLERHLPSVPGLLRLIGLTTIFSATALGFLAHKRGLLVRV
As to the kind of experiment: Activity on recombinant human MAO-B, Amplex Red method, 1 mM benzylamine substrate. The note with it: read-out: Inhibitory Activity (IC50, nM) MAO-B. In outline: as §1

The target in experiment [3] is T4, recombinant human DAO (diamine oxidase) (Homo sapiens, UniProt P19801).
T4 construct: purchased R&D systems
T4 sequence (P19801 20-751): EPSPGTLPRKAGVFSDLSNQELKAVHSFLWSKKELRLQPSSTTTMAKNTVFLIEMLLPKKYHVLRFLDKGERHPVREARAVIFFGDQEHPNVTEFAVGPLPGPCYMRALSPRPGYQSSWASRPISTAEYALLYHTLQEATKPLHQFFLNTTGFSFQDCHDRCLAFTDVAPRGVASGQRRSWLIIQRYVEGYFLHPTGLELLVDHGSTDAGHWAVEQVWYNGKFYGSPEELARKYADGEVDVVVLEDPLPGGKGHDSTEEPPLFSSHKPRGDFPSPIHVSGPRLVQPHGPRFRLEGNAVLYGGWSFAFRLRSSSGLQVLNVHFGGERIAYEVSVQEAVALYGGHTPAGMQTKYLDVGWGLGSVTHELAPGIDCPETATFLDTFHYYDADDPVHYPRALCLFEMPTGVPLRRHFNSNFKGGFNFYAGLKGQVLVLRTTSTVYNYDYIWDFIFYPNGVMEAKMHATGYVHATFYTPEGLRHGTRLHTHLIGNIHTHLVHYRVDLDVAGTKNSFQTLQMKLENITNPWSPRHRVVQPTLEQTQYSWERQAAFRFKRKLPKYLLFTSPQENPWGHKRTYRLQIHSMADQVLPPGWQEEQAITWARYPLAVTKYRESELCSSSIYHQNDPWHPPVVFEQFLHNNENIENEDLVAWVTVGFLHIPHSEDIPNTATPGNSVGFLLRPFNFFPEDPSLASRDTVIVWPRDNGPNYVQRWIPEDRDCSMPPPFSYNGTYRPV
As to the kind of experiment: Activity on recombinant human DAO, Amplex Red method, 1 mM putrescine substrate. The note with it: recombinant human DAO; for IC50: read-out: Inhibitory Activity (IC50, nM) DAO. In outline:
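Inhibition of recombinant human DAO (diamine oxidase, R&D systems) was assessed with the Amplex Red Hydrogen Peroxide Assay Kit. Hydrogen peroxide produced from 1 mM putrescine was detected through an HRP-coupled reaction that converts Amplex Red into fluorescent resorufin, read at 544 nm excitation and 590 nm emission. IC50 values came from four-parameter logistic fits in GraphPad Prism.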

Setting [4] is: 1 mM putrescine, * = between 10 and 100 nM, ** = between 300 and 1000 nM.

One may read the IC50 as the point on the concentration scale where inhibition reaches its midpoint. For `Cc1cc(-c2ccc(C(=O)N3CCOCC3)cc2)cnc1-n1cnn(C/C(=C/F)CN)c1=O` [Example 146, 2-[(2E)-2-(aminomethyl)-3-fluoroprop-2-en-1-yl]-4-{3-methyl-5-[4-(morpholin-4-ylcarbonyl)phenyl]pyridin-2-yl}-2,4-dihydro-3H-1,2,4-triazol-3-one hydrochloride], the IC50 on recombinant human VAP-1 (30 min preincubation at 37° C.) is 0.7 nM; in experiment [1] (0.5 mM tyramine), > 100000 nM; in experiment [2] (1 mM benzylamine) it was > 10000 nM; in experiment [3] (setting [4]), 17000 nM.

As for `Cc1cc(-n2cnn(C/C(=C/F)CN)c2=O)ncc1-c1cccc(-c2nc[nH]n2)c1` [Example 158, 2-[(2E)-2-(aminomethyl)-3-fluoroprop-2-en-1-yl]-4-{4-methyl-5-[3-(1H-1,2,4-triazol-3-yl)phenyl]pyridin-2-yl}-2,4-dihydro-3H-1,2,4-triazol-3-one], the half-inhibitory concentration (IC50) is 0.18 nM on recombinant human VAP-1, 9600 nM in experiment [1] (0.5 mM tyramine substrate), 1940 nM in experiment [2] (1 mM benzylamine substrate) and < 100 nM in experiment [3] (1 mM putrescine substrate).

With `CC(=O)Nc1ccc(-c2cnc(-n3cnn(C/C(=C/F)CN)c3=O)c(C)c2)cc1` [Example 134, N-[4-(6-{1-[(2E)-2-(aminomethyl)-3-fluoroprop-2-en-1-yl]-5-oxo-1,5-dihydro-4H-1,2,4-triazol-4-yl}-5-methylpyridin-3-yl)phenyl]acetamide hydrochloride], the IC50 at recombinant human VAP-1 (30 min preincubation at 37° C.) is 0.55 nM; in experiment [1] (0.5 mM tyramine), > 100000 nM; in experiment [2] (1 mM benzylamine), > 10000 nM; in experiment [3] (setting [4]), 1200 nM.

In the case of `COc1ccc(C#Cc2cccc(-n3cnn(C/C(=C/F)CN)c3=O)n2)cn1` [Example 247, 2-[(2E)-2-(aminomethyl)-3-fluoroprop-2-en-1-yl]-4-{6-[(6-methoxypyridin-3-yl)ethynyl]pyridin-2-yl}-2,4-dihydro-3H-1,2,4-triazol-3-one], the IC50 on recombinant human VAP-1 was 0.3 nM; in experiment [1] (0.5 mM tyramine substrate), > 100000 nM; in experiment [2] (1 mM benzylamine substrate), 4300 nM; in experiment [3] (1 mM putrescine substrate), 14 nM.

As to `Cc1c(-c2ccc3sc(N)nc3c2)cccc1-n1cnn(C/C(=C/F)CN)c1=O` [Example 114, 4-[3-(2-amino-1,3-benzothiazol-5-yl)-2-methylphenyl]-2-[(2E)-2-(aminomethyl)-3-fluoroprop-2-en-1-yl]-2,4-dihydro-3H-1,2,4-triazol-3-one], the half-maximal inhibitory concentration (IC50) on recombinant human VAP-1 (30 min preincubation at 37° C.) was 3.1 nM; in experiment [1] (0.5 mM tyramine), > 100000 nM; in experiment [2] (1 mM benzylamine), > 10000 nM. Moreover, the “Inhibitory Activity (IC50, nM) DAO” value in experiment [3] (setting [4]) is given as “no inhibitory”.

`NC/C(=C/F)Cn1ncn(-c2cccc(Br)c2)c1=O` [Example 3, 2-[(2Z)-2-(aminomethyl)-3-fluoroprop-2-en-1-yl]-4-(3-bromophenyl)-2,4-dihydro-3H-1,2,4-triazol-3-one hydrochloride]: the IC50 was 2.5 nM at recombinant human VAP-1 (30 min preincubation at 37° C.), 3500 nM in experiment [1] (0.5 mM tyramine), 121 nM in experiment [2] (1 mM benzylamine) and 542 nM in experiment [3] (setting [4]).

Turning to `CC(=O)Nc1ccc(-c2ccc(-c3cccc(-n4cnn(C/C(=C/F)CN)c4=O)c3)cc2)cc1` [Example 68, N-(3″-{1-[(2E)-2-(aminomethyl)-3-fluoroprop-2-en-1-yl]-5-oxo-1,5-dihydro-4H-1,2,4-triazol-4-yl}-1,1′:4′,1″-terphenyl-4-yl)acetamide hydrochloride], the IC50 was 0.82 nM at recombinant human VAP-1 (30 min preincubation at 37° C.), 37800 nM in experiment [1] (0.5 mM tyramine), > 10000 nM in experiment [2] (1 mM benzylamine) and 2.7 nM in experiment [3] (setting [4]).

In the case of `NC/C(=C\F)Cn1ncn(-c2cc(-c3ccc4nonc4c3)ccn2)c1=O` [Example 172, 2-[(2E)-2-(aminomethyl)-3-fluoroprop-2-en-1-yl]-4-[4-(2,1,3-benzooxadiazol-5-yl)pyridin-2-yl]-2,4-dihydro-3H-1,2,4-triazol-3-one], the half-maximal inhibitory concentration (IC50) was 0.67 nM on recombinant human VAP-1, > 100000 nM in experiment [1] (0.5 mM tyramine substrate), 9070 nM in experiment [2] (1 mM benzylamine substrate) and < 30 nM in experiment [3] (1 mM putrescine substrate).

Turning to `CS(=O)(=O)c1ccc(-c2ccc(-n3cnn(C/C(=C\F)CN)c3=O)nc2)cc1` [Example 129, 2-[(2Z)-2-(aminomethyl)-3-fluoroprop-2-en-1-yl]-4-{5-[4-(methylsulfonyl)phenyl]pyridin-2-yl}-2,4-dihydro-3H-1,2,4-triazol-3-one hydrochloride], the IC50 at recombinant human VAP-1 (30 min preincubation at 37° C.) is 0.45 nM; in experiment [1] (0.5 mM tyramine), > 100000 nM; in experiment [2] (1 mM benzylamine) it was 10 nM; in experiment [3] (setting [4]), < 1 nM.

For the molecule `NC/C(=C\F)Cn1ncn(-c2ncc(-c3ccc4sc(N)nc4c3)cc2F)c1=O` [Example 164, 4-[5-(2-amino-1,3-benzothiazol-5-yl)-3-fluoropyridin-2-yl]-2-[(2E)-2-(aminomethyl)-3-fluoroprop-2-en-1-yl]-2,4-dihydro-3H-1,2,4-triazol-3-one hydrochloride], the IC50 on recombinant human VAP-1 was 0.25 nM; in experiment [1] (0.5 mM tyramine substrate), > 100000 nM; in experiment [2] (1 mM benzylamine substrate), 183 nM; in experiment [3] (1 mM putrescine substrate), 1.4 nM.
